{
  "source": "paper PMC5340309",
  "about": "(Biomacromolecules, 2016)",
  "origin": "cited, not measured here",
  "settings_in_all_cases": "included for comparison",
  "key": {"[1]": {"test_system": "K. pneumoniae (ATCC 13383)"}, "[2]": {"test_system": "Methicillin-resistant S. aureus (MRSA, ATCC 33591)"}, "[3]": {"test_system": "Methicillin-resistant S. epidermidis (MRSE, RP62A)"}, "[4]": {"test_system": "P. aeruginosa (ATCC27853)"}},
  "data": [
    {"substance": "pexiganan", "values": [
      {"measurement": "MIC K. pneumonia (Gram−)", "setting": "[1]", "value": 32, "unit": "mg/L"},
      {"measurement": "MIC MRSA (Gram+)", "setting": "[2]", "value": 16, "unit": "mg/L"},
      {"measurement": "MIC MRSE (Gram+)", "setting": "[3]", "value": 8, "unit": "mg/L"},
      {"measurement": "MIC P. aeruginosa (Gram−)", "setting": "[4]", "value": 16, "unit": "mg/L"}
    ]}
  ]
}
